We go through six compounds from US4935362A, “BMY-28121, a new antitumor antibiotic” (Bristol-Myers Company, priority 1987, dated 1990).

Values after ≈ are worked out from the molar mass of the structure shown. Like-named read-outs stand apart in the source and are kept apart here. A value given as a limit tells only on which side of the number the result lay.

Data set [1] concerns Clostridium difficile A21675. Type of data set: cell-based. Particulars: Clostridioides difficile, GAM agar, 10^7-10^8 inoculum.
Data set [2] relates to Bacteriodes fragilis A22693. Type of data set: cell-based. Particulars: GAM agar, 10^7-10^8 inoculum.
The test system of data set [3] is Bacteriodes fragilis A22053. Type of data set: cell-based.
The test system of data set [4] is Bacteriodes fragilis A22021. Type of data set: cell-based.
The subject of data set [5] is Bacteriodes fragilis A22695. Type of data set: cell-based.
The test system of data set [6] is Bacteriodes fragilis A22533. Type of data set: cell-based.
Data set [7] has as its system Bacteriodes fragilis CUH-108. Type of data set: cell-based.
Data set [8] concerns Micrococcus luteus PCI-1001. Nature of the data set: microbe, parasite or virus in culture. Type of data set: cell-based.
Data set [9] has as its system Bacillus subtilis PCI-219. Nature of the data set: microbe, parasite or virus in culture. Type of data set: cell-based.
Data set [10] concerns Bacteriodes fragilis A22534. Type of data set: cell-based.
Data set [11] relates to Staphylococcus aureus D136. Type of data set: cell-based.
For data set [12], the system named is Staphylococcus aureus A20239. Type of data set: cell-based.
Data set [13] deals with Staphylococcus aureus BX-1633. Type of data set: cell-based.
The subject of data set [14] is Staphylococcus aureus A15097. Type of data set: cell-based.
In data set [15] the test system is Strpetococcus faecalis A9612. Type of data set: cell-based.
Data set [16] concerns Escherichia coli NIHJ. Type of data set: cell-based.
For data set [17], the system named is Klebsiella pnuemonia D-11. Type of data set: cell-based. Particulars: D11.
Data set [18] relates to Proteus mirabilis A9554. Type of data set: cell-based.
Data set [19] relates to Proteus vulgaris A9436. Type of data set: cell-based.
The test system of data set [20] is Morganella morganii A9553. Type of data set: cell-based.
The subject of data set [21] is Serratia marcescens A20222. Nature of the data set: microbe, parasite or virus in culture. Type of data set: cell-based.
The subject of data set [22] is Pseudomonas aeruginosa A9930. Type of data set: cell-based.
The test system of data set [23] is Enterobacter cloacae A9659. Nature of the data set: microbe, parasite or virus in culture. Type of data set: cell-based.
For data set [24], the system named is Clostridium perfringens A22787. Nature of the data set: microbe, parasite or virus in culture. Type of data set: cell-based.
In data set [25] the test system is Propionibacterium acnes A21933. Type of data set: cell-based. Particulars: Cutibacterium acnes.
Data set [26] relates to Peptostreptococcus anaerobius A21905. Type of data set: cell-based.
The test system of data set [27] is aerobic gram-positive bacteria. Type of data set: cell-based.
Data set [28] concerns aerobic gram-negative organisms. Type of data set: cell-based.
Data set [29] has as its system anaerobic bacteria. Type of data set: cell-based.
For data set [30], the system named is P388 leukemia. Type of data set: in vivo, mice (male BDF1 strain). Particulars: for T/C % of MST: ip, once daily for 9 days.
The test system of data set [31] is L1210 leukemia. Nature of the data set: Antitumor activity in mice, L1210 leukemia. Type of data set: in vivo, mice (male BDF1 strain). Particulars: ip; for T/C % of MST: once daily for 9 days.
In data set [32] the test system is B16 melanoma. Nature of the data set: Antitumor activity in mice, B16 melanoma. The settings on record: ip; for T/C % of MST: once daily for 9 days. Type of data set: in vivo, mice (male BDF1 strain).
In data set [33] the test system is various gram-positive and anaerobic bacteria. Type of data set: cell-based.
The test system of data set [34] is Staphylococcus aureus 52-34. Type of data set: cell-based. The settings on record: 5234.
Data set [35] has as its system Staphylococcus epidermidis D153. Type of data set: cell-based.
Data set [36] relates to Staphylococcus epidermidis A22152. Type of data set: cell-based.
Setting [37] is: Bacteriodes fragilis A22695, GAM agar, 10^7-10^8 inoculum, read-out: MIC.
Where [38] appears, read: Bacteriodes fragilis A22533, GAM agar, 10^7-10^8 inoculum, read-out: MIC.
[39] abbreviates: Bacteriodes fragilis CUH-108, GAM agar, 10^7-10^8 inoculum, read-out: MIC.

On to `CCC[C@@H]1C[C@@H](C(=O)N[C@@H]([C@H]2O[C@H](SC)[C@H](O)[C@@H](O)[C@H]2O)[C@H](C)Cl)N(C)C1` [Clindamycin], for which the MIC came out at 50 µg/mL (≈ 118 µM) in data set [1]; 0.1 µg/mL (≈ 0.235 µM) in data set [2]; 0.2 µg/mL (≈ 0.471 µM) in [3] (Bacteriodes fragilis A22053, GAM agar, 10^7-10^8 inoculum, read-out: MIC); 0.1 µg/mL (≈ 0.235 µM) in data set [4] (Bacteriodes fragilis A22021, GAM agar, 10^7-10^8 inoculum, read-out: MIC); 0.1 µg/mL (≈ 0.235 µM) in [5] (setting [37]); 0.1 µg/mL (≈ 0.235 µM) in data set [6] (setting [38]). Also, the MIC in [7] (setting [39]) came to 100 µg/mL (≈ 235 µM).
For the compound `CC1(C)S[C@@H]2[C@H](NC(=O)[C@H](N)c3ccccc3)C(=O)N2[C@H]1C(=O)O` [Ampicillin, reference compound], the MIC was less than 0.0063 µg/mL in [8] (PCI1001, read-out: MIC); 0.025 µg/mL (≈ 0.0715 µM) in data set [9] (PCI219); greater than 100 µg/mL in data set [10] (Bacteriodes fragilis A22534, GAM agar, 10^7-10^8 inoculum, read-out: MIC); greater than 100 µg/mL in [5] (setting [37]); greater than 100 µg/mL in data set [6] (setting [38]); 50 µg/mL (≈ 143 µM) in [7] (setting [39]).
For the compound `COc1cccc2c1N[C@H](OC)[C@@H]1CC(/C=C/C(=O)N(C)C)=CN1C2=O` [BMY-28121 B, 1,10,11,11a-tetrahydro-9,11-dimethoxy-5H-pyrrolo-[2,1-c][1,4]benzodiazepine-5-one-2-N,N-dimethylacrylamide], the MIC in data set [11] was determined as 6.3 µg/mL (≈ 17.6 µM); in data set [12], 6.3 µg/mL (≈ 17.6 µM); in data set [13] (BX1633), 6.3 µg/mL (≈ 17.6 µM); in data set [14], 6.3 µg/mL (≈ 17.6 µM); in data set [15], 6.3 µg/mL (≈ 17.6 µM); in data set [8] (PCI1001), 12.5 µg/mL (≈ 35 µM). Besides, the MIC in [16], in [17], in data set [18], in data set [19], in data set [20] and in [21] was greater than 50 µg/mL throughout. The MIC was greater than 50 µg/mL in data set [22]; greater than 50 µg/mL in data set [23]; 0.4 µg/mL (≈ 1.12 µM) in data set [24]; 0.4 µg/mL (≈ 1.12 µM) in data set [25]; 0.2 µg/mL (≈ 0.56 µM) in [26]; 0.4 µg/mL (≈ 1.12 µM) in [3]. In addition, the MIC is 0.2 µg/mL (≈ 0.56 µM) in data set [4]; 0.4 µg/mL (≈ 1.12 µM) in data set [10]; 0.4 µg/mL (≈ 1.12 µM) in data set [5]; 0.8 µg/mL (≈ 2.24 µM) in data set [6]; 0.4 µg/mL (≈ 1.12 µM) in data set [7]. Also, in [27], the “susceptibility of aerobic gram-positive bacteria” value is “moderately susceptible”. Also, in data set [28], the “in vitro activity against aerobic gram-negative organisms” value is given as “did not show any in vitro activity”. In data set [29], the “inhibition of anaerobic bacteria” value is “inhibited all of the gram-positive and negative organisms”. Besides, the “T/C % of MST” value is on record as 120% in data set [30] (0.008 mg/kg/day, P388 leukemia); 200% in data set [30] (0.13 mg/kg/day, P388 leukemia); 210% in data set [30] (0.25 mg/kg/day, P388 leukemia); 129% in data set [31] (0.13 mg/kg/day); 129% in [31] (0.25 mg/kg/day); 113% in data set [32] (0.13 mg/kg/day). The “T/C % of MST” value in data set [32] (0.25 mg/kg/day) amounted to 131%. Besides, in [30] (P388 leukemia, vs mitomycin C), the “times more active than mitomycin C in terms of minimum effective dose” value is listed as “approximately 4 times”. Further, in data set [30] (eg. P388 leukemia in mice), the “antitumor activity against experimental tumors in mice” value is recorded as “marked antitumor activity”. Also, the “therapeutic activity against L1210 leukemia” value in data set [31] is given as “potent therapeutic activity”. The “activity against B16 melanoma” value in data set [32] was “marginally active”. Further, the antibacterial activity result in data set [33] is reported as “possess antibacterial activity”. Moreover, the solubility result (in ethyl acetate and ethyl ether) is “slightly soluble”; the solubility entry (in methanol, ethanol, chloroform, pyridine, and dimethylformamide) is “readily soluble”; the solubility result (in n-hexane and water) is on record as “practically insoluble”.
On to `CO[C@@]12[C@H](COC(N)=O)C3=C(C(=O)C(C)=C(N)C3=O)N1C[C@@H]1N[C@@H]12` [Mitomycin C, reference compound], for which the “T/C % of MST” value stood at 150% in data set [30] (0.13 mg/kg/day, P388 leukemia); 180% in data set [30] (0.25 mg/kg/day, P388 leukemia); 240% in data set [30] (0.5 mg/kg/day, P388 leukemia); 450% in [30] (1 mg/kg/day, P388 leukemia); 129% in [31] (0.13 mg/kg/day); 129% in data set [31] (0.25 mg/kg/day). For the same compound, the “T/C % of MST” value in data set [31] (0.5 mg/kg/day) worked out at 141%; in [31] (1 mg/kg/day), 141%; in data set [32] (0.5 mg/kg/day), 164%; in [32] (1 mg/kg/day) it was 191%.
As for `COc1cccc2c1N[C@H](O)[C@@H]1CC(/C=C/C(=O)N(C)C)=CN1C2=O` [BMY-28121 A], the MIC in data set [34] was 3.1 µg/mL (≈ 9.03 µM); in [12], 12.5 µg/mL (≈ 36.4 µM); in data set [13] (BX1633) it was 12.5 µg/mL (≈ 36.4 µM); in [14] it was 12.5 µg/mL (≈ 36.4 µM); in [35], 3.1 µg/mL (≈ 9.03 µM); in data set [15] it was 12.5 µg/mL (≈ 36.4 µM). In addition, the MIC in data set [8] (PCI1001) is 12.5 µg/mL (≈ 36.4 µM); in data set [16], 50 µg/mL (≈ 146 µM); in data set [17] it was greater than 50 µg/mL; in [18], greater than 50 µg/mL; in data set [19], greater than 50 µg/mL; in [20] it was greater than 50 µg/mL. In addition, the MIC in [21] was greater than 50 µg/mL; in data set [22], greater than 50 µg/mL; in data set [23], greater than 50 µg/mL; in [25] (read-out: MIC), 0.4 µg/mL (≈ 1.16 µM); in [26] (read-out: MIC), 0.4 µg/mL (≈ 1.16 µM); in data set [3] (read-out: MIC), 0.8 µg/mL (≈ 2.33 µM). Further, the MIC in [4] (read-out: MIC) and in data set [7] (read-out: MIC) was 0.8 µg/mL (≈ 2.33 µM) each time. Also, in [28], the “in vitro activity against aerobic gram-negative organisms” value is given as “did not show any in vitro activity”. Besides, the “antitumor activity against experimental tumors in mice” value in data set [30] (mouse, in vivo) is “marked antitumor activity”. Also, the “times more active than mitomycin C in terms of minimum effective dose” value in [30] (mouse, in vivo) is on record as “approximately 4 times”. The antibacterial activity result in [33] is recorded as “possess antibacterial activity”.
With `NC[C@H]1O[C@H](O[C@H]2[C@H](O)[C@@H](O[C@H]3O[C@H](CO)[C@@H](O)[C@H](N)[C@H]3O)[C@H](N)C[C@@H]2N)[C@H](O)[C@@H](O)[C@@H]1O` [Kanamycin, reference compound], the MIC in [11] (read-out: MIC) was 0.8 µg/mL (≈ 1.65 µM); in data set [34] it was 0.8 µg/mL (≈ 1.65 µM); in [12] it was 100 µg/mL (≈ 206 µM); in data set [13] (BX1633, read-out: MIC), 0.8 µg/mL (≈ 1.65 µM); in [14] (read-out: MIC), 0.8 µg/mL (≈ 1.65 µM); in data set [35], 0.8 µg/mL (≈ 1.65 µM). Moreover, the MIC in [36] is 25 µg/mL (≈ 51.6 µM); in [15] it was 25 µg/mL (≈ 51.6 µM); in data set [8] (PCI1001), 6.3 µg/mL (≈ 13 µM); in data set [9] (PCI219, read-out: MIC), 0.2 µg/mL (≈ 0.413 µM); in data set [16] (read-out: MIC), 1.6 µg/mL (≈ 3.3 µM); in [17] it was 0.4 µg/mL (≈ 0.826 µM). For the same compound, the MIC in data set [18] stood at 6.3 µg/mL (≈ 13 µM); in [19] (read-out: MIC), 0.8 µg/mL (≈ 1.65 µM); in [20], 6.3 µg/mL (≈ 13 µM); in [21] (read-out: MIC), 3.1 µg/mL (≈ 6.4 µM); in data set [22], 6.3 µg/mL (≈ 13 µM); in data set [23] (read-out: MIC), 3.1 µg/mL (≈ 6.4 µM).
